# What was measured:
# nfi13-6 = assay: Zebrafish oligo-DNA microarray gene expression with cluster analysis together with behavioral data (8beta vs library); format: in vivo, MieKomachi 002 Line 8 dpf; details: 8beta 10 μM; nfi13-6 clusters with H-, M-, L-DMT D, L1, L2
# Procedure: (5) Subsequently, link the administration of the substance of known action and the change in expression levels of genes using microarray experiments.
# (§1) The microarray experiments can be performed using Zebrafish oligo-DNA micro array Ver.3.0 manufactured by Agilent Technologies, Inc. according to protocol.
# Based on array data obtained by this microarray experiment, the normalization of the data in the arrays is performed in the procedure described above using software in Gene Springs.
# (3) Link the administration of 8beta and the change in expression levels of genes using microarray experiments.
# The microarray experiments can be performed using zebrafish oligo-DNA micro array Ver.3.0 manufactured by Agilent Technologies, Inc. according to protocol.
# (§2) Based on array data obtained by this microarray experiment, the normalization of the data in the arrays is performed in the procedure described above using software in Gene Springs and data among arrays are normalized by a method using the Z score.
# Processing of statistically matching and analyzing the numerical data for Suvorexant and Imipramine recorded in the library and the numerical data with the administration of 8beta was conducted by the cluster analysis as follows. […]
# zebrafish [1] = assay: Zebrafish behavioral parameter measurement (Danio Vision/Ethovision) with cluster analysis against library of Suvorexant and Imipramine; format: in vivo, MieKomachi 002 Line 8 dpf; details: 8beta 10 μM; estimated from similarity to Suvorexant
# Procedure: 0.3×Danieau's solution (19.3 mM NaCl, 0.23 mM KCl, 0.23 mM MgSO4, 0.2 mM Ca(NO3)2, 1.7 mM HEPES, pH 7.2) is used as a water bath, and a 0.1% DMSO-containing water bath is used.
# Zebrafish is prepared by growing it under the following conditions to 8 dpf.
# Zebrafish: MieKomachi 002 Line 8 dpf
# For each substance of known action, the reagent in which the substance was dissolved in the water bath and adjusted at a concentration of 1 μM was prepared.
# (1) Add 1 ml of the water bath to each well of a 48-well plate. Transfer one zebrafish (8 dpf) per well thereto and adjust the temperature to 28° C. and maintain the temperature for from 30 minutes to 1 hour. […]
# (§3) The repetition of light and dark periods with cycled of a light period for 3 hours (period L1)—a dark period for 10 hours (period D)—a light period for 11 hours (period L2) is performed and the behavior of zebrafish is recorded for 24 hours. […]
# (§4) For each class of mobility states, the indicators DMF, IZF, DTZ, and TA are measured. […]
# (§5) (2) Store the measured behavioral parameters as raw data of the following forms. • Type of reagent (any of the reagents prepared in [Preparation of reagents for production of library] or control) • Mobility state (95 to 65 (high speed), 65 to 35 (moderate speed), or 35 to 05 (low speed)) • Repetition of light and dark periods (L1, D, or L2) • Indicator (DMF, IZF, DTZ, or TA) […]
# per1b = assay: Zebrafish oligo-DNA microarray gene expression with cluster analysis together with behavioral data (EGCG vs library); format: in vivo, Zebrafish (Danio rerio), AB Line 6 dpf; details: EGCG 0.003 mg/mL; per1b clusters with L-DMT D, L-DMT L1, L-DMT L2
# Procedure: This can be done by citing array data of Diazepam (GSE23157) and Haloperidol (GSE89780) from a public DB (Geo Datasets).
# Based on these array data, the normalization of the data in the arrays is performed in the procedure described above using software in Gene Springs and data among arrays are normalized by a method using the Z score.
# (3) Link the administration of EGCG and the change in expression levels of genes using microarray experiments.
# as §1, §2
# Processing of statistically matching and analyzing the numerical data for Diazepam and Haloperidol recorded in the library and the numerical data with the administration of EGCG was conducted by the cluster analysis as follows.
# In the result of cluster analysis including data of change in expression levels of genes, the action and mechanism of EGCG can be estimated based on the Gene Ontrogy (GO) information of the gene expression data by paying attention on data having high correlation between EGCG and Diazepam (data clustered in close relation). […]
# zebrafish [2] = assay: Zebrafish behavioral parameter measurement (Danio Vision/Ethovision) with cluster analysis against library of Diazepam and Haloperidol; format: in vivo, Zebrafish (Danio rerio), AB Line 6 dpf; details: EGCG 0.003 mg/mL; estimated from similarity to Diazepam
# Procedure: 0.3×Danieau's solution (19.3 mM NaCl, 0.23 mM KCl, 0.23 mM MgSO4, 0.2 mM Ca(NO3)2, 1.7 mM HEPES, pH 7.2) is used as a water bath.
# Zebrafish is prepared by growing it under the following conditions to 6 dpf.
# For each substance of known action, the reagent in which the substance was dissolved in the water bath and adjusted at a concentration of 10 μM was prepared.
# (1) Add 1 ml of the water bath to each well of a 48-well plate. Transfer one zebrafish (6 dpf) per well thereto and adjust the temperature to 28° C. and maintain the temperature for from 30 minutes to 1 hour.
# (2) Remove the liquid in the 48-well plate with a pipette and then add 1 ml/well of any of the reagents. […]
# as §3, §4, §5
# zebrafish [3] = details: modafinil given to zebrafish in bath; compared with ethanol; cited from earlier work
smiles,measurement,setting,value
"C=C1C(=O)OC2C=C(C)CCC=C(C)CC(OC(=O)/C(C)=C/CO)C12 (stereo not drawn) [8beta, 8beta-(4′-hydroxytigloyloxy)costunolide]","gene expression data (nfi13-6), cluster analysis of change in expression levels",nfi13-6,change with correlation between 8beta and Suvorexant
same,action estimated from closely related drug in cluster analysis,zebrafish [1],sleep action
"O=C(O[C@@H]1Cc2c(O)cc(O)cc2O[C@@H]1c1cc(O)c(O)c(O)c1)c1cc(O)c(O)c(O)c1 [EGCG, epigallocatechin gallate]","gene expression data (per1b), cluster analysis of change in expression levels",per1b,change with correlation between EGCG and Diazepam
same,action estimated from closely related drug in cluster analysis,zebrafish [2],sedative action
NC(=O)C[S+]([O-])C(c1ccccc1)c1ccccc1 (centres unmarked) [modafinil],action suggested by behavioral analysis of zebrafish,zebrafish [3],antianxiety action

# Reference: patent US20210062367A1, “METHOD FOR PRODUCING LIBRARY FOR USE IN PREDICTION OF ACTION OF SUBSTANCE OF INTEREST ON LIVING BODY, AND METHOD FOR […] OF SUBSTANCE OF INTEREST ON LIVING BODY BASED ON CHANGE IN ACTION PARAMETER OR THE LIKE OF ZEBRAFISH” (SUNTORY HOLDINGS LIMITED, priority 2017, published 2021)
